In US20050075375A1 (priority 2003, published 2005) one finds EC50 data, which are given here for 30 compounds.

This assay has as its system monocistronic NK5.1 HCV replicon in Huh7 cells. The assay is described as follows: HCV replicon assay, monocistronic replicon cell line. Type of assay: cell-based, hepatitis C virus. To be noted: Hepatitis C virus, Huh-7, 72 h; table T3 (compounds 471-640); monocistronic replicon in Huh7 cells, 3 days incubation, HCV RNA/GAPDH RNA by TaqMan RT-PCR; read-out: Mono EC50 Median. In outline: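 EC50 derives from the HCV RNA/GAPDH RNA ratio by one-step TaqMan RT-PCR, relative to DMSO-only wells. Compounds (six half-log concentrations, 0.6% DMSO) were incubated 3 days at 37 °C with NK5.1 monocistronic replicon Huh7 cells plated a day earlier.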
Background: A replicon is a self-replicating genome or part of one, used to study replication in cells.

Consider `O=[N+]([O-])c1cccc(-c2nc(-c3ncccc3Br)n[nH]2)c1` [Compound 497, 3-Bromo-2-[5-(3-nitro-phenyl)-1H-[1,2,4]triazol-3-yl]-pyridine], for which the EC50 is above 32 µM. To `CCN(CC)c1ccc(-c2nc(-c3ncccc3Br)n[nH]2)c(O)c1` [Compound 498, 2-[5-(3-Bromo-pyridin-2-yl)-2H-[1,2,4]triazol-3-yl]-5-Diethylamino-phenol] belongs 5.8 µM; to `Oc1ccc(O)c(-c2nc(-c3ncccc3Br)n[nH]2)c1` [Compound 499, 2-[5-(3-Bromo-pyridin-2-yl)-2H-[1,2,4]triazol-3-yl]-4-Hydroxy-phenol], 6.2 µM; to `COc1cccc(-c2nc(-c3ncccc3Br)n[nH]2)c1` [Compound 500, 3-Bromo 2-[5-(3-Methoxy-phenyl)-1H-[1,2,4]triazol-3-yl]-pyridine], above 32 µM. Consider `COc1ccc(F)c(-c2nc(-c3ncccc3Br)n[nH]2)c1` [Compound 501, 3-Bromo-2-[5-(2-Fluoro-5-methoxy-phenyl)-1H-[1,2,4]triazol-3-yl]-pyridine], for which the EC50 was above 32 µM. As for `CC(C)c1ccc(-c2nc(-c3ncccc3Br)n[nH]2)cc1` [Compound 502, 3-Bromo-2-[5-(4-isopropyl-phenyl)-1H-[1,2,4]triazol-3-yl]-pyridine], the figure is 12 µM; as for `Oc1ccc2ccccc2c1-c1nc(-c2ncccc2Br)n[nH]1` [Compound 503, 1-(5-(3-Bromo-pyridin-2-yl)-2H-[1,2,4]triazol-3-yl)-naphthalen-2-ol], 6.9 µM. To `Cc1cccnc1-c1n[nH]c(-c2ccccc2Br)n1` [Compound 504, 2-[5-(2-Bromo-phenyl)-1H-[1,2,4]triazol-3-yl]-3-mehtyl-pyridine] belongs 7.3 µM; to `Cc1cccnc1-c1n[nH]c(-c2cccc(Br)c2)n1` [Compound 505, 2-[5-(3-Bromo-phenyl)-1H-[1,2,4]triazol-3-yl]-3-methyl-pyridine], 4 µM. As for `FC(F)(F)c1ccc(-c2n[nH]c(-c3cccc4ccccc34)n2)nc1` [Compound 506, 2-(5-Naphthalen-1-yl-1H-[1,2,4]triazol-3-yl)-5-trifluoromethyl-pyridine], the figure is above 19 µM; as for `CC(C)(C)c1ccc(O)c(-c2nc(-c3ccc(C(F)(F)F)cn3)n[nH]2)c1` [Compound 507, 4-tert-Butyl-2-[5-(5-trifluoromethyl-pyridin-2-yl)-2H-[1,2,4]triazol-3-yl]-phenol], above 19 µM; as for `O=[N+]([O-])c1ccc(O)c(-c2nc(-c3ccc(C(F)(F)F)cn3)n[nH]2)c1` [Compound 508, 4-Nitro-2-[5-(5-trifluoromethyl-pyridin-2-yl)-2H-[1,2,4]triazol-3-yl]-phenol], above 19 µM.

As for `Oc1ccc(F)cc1-c1nc(-c2ccc(C(F)(F)F)cn2)n[nH]1` [Compound 509, 4-Fluoro-2-[5-(5-trifluoromethyl-pyridin-2-yl)-2H-[1,2,4]triazol-3-yl]-phenol], the EC50 is above 19 µM. To `COc1ccc(O)c(-c2nc(-c3ccc(C(F)(F)F)cn3)n[nH]2)c1` [Compound 510, 4-Methoxy-2-[5-(5-trifluoromethyl-pyridin-2-yl)-2H-[1,2,4]triazol-3-yl]-phenol] belongs above 19 µM; to `Oc1ccc(Cl)cc1-c1nc(-c2ccc(C(F)(F)F)cn2)n[nH]1` [Compound 511, 4-Chloro-2-[5-(5-trifluoromethyl-pyridin-2-yl)-2H-[1,2,4]triazol-3-yl]-phenol], above 19 µM; to `CCOc1cccc(-c2nc(-c3ccc(C(F)(F)F)cn3)n[nH]2)c1O` [Compound 512, 6-Ethoxy-2-[5-(5-trifluoromethyl-pyridin-2-yl)-2H-[1,2,4]triazol-3-yl]-phenol], above 19 µM. For `Oc1cc(OCc2ccccc2)ccc1-c1nc(-c2ccc(C(F)(F)F)cn2)n[nH]1` [Compound 513, 5-Benzyloxy-2-[5-(5-trifluoromethyl-pyridin-2-yl)-2H-[1,2,4]triazol-3-yl]-phenol], the EC50 was above 19 µM. As for `Fc1cc(-c2nc(-c3ccc(C(F)(F)F)cn3)n[nH]2)ccc1-c1ccccc1` [Compound 514, 2-[5-(2-Fluoro-biphenyl-4-yl)-1H-[1,2,4]triazol-3-yl]-5-trifluoromethyl-pyridine], the figure is above 19 µM; as for `Oc1ccc(Br)cc1-c1nc(-c2ccc(C(F)(F)F)cn2)n[nH]1` [Compound 515, 4-Bromo-2-[5-(5-trifluoromethyl-pyridin-2-yl)-2H-[1,2,4]triazol-3-yl]-phenol], above 19 µM. To `Cc1ccc(O)c(-c2nc(-c3ccc(C(F)(F)F)cn3)n[nH]2)c1` [Compound 516, 4-Methyl-2-[5-(5-trifluoromethyl-pyridin-2-yl)-2H-[1,2,4]triazol-3-yl]-phenol] belongs above 19 µM. Consider `COc1ccc(-c2nc(-c3ccc(C(F)(F)F)cn3)n[nH]2)c(O)c1` [Compound 517, 5-Methoxy-2-[5-(5-trifluoromethyl-pyridin-2-yl)-2H-[1,2,4]triazol-3-yl]-phenol], for which the EC50 is above 19 µM. Take `Oc1ccccc1-c1nc(-c2ccc(C(F)(F)F)cn2)n[nH]1` [Compound 518, 2-[5-(5-trifluoromethyl-pyridin-2-yl)-2H-[1,2,4]triazol-3-yl]-phenol]: the concentration for a half-maximal effect (EC50) is above 19 µM. As for `COc1cccc(-c2nc(-c3ccc(C(F)(F)F)cn3)n[nH]2)c1O` [Compound 519, 6-Methoxy-2-[5-(5-trifluoromethyl-pyridin-2-yl)-2H-[1,2,4]triazol-3-yl]-phenol], the figure is above 19 µM; as for `O=[N+]([O-])c1cccc(-c2nc(-c3ccc(C(F)(F)F)cn3)n[nH]2)c1` [Compound 520, 2-[5-(3-Nitro-phenyl)-1H-[1,2,4]triazol-3-yl]-5-trifluoromethyl-pyridine], above 19 µM; as for `CCN(CC)c1ccc(-c2nc(-c3ccc(C(F)(F)F)cn3)n[nH]2)c(O)c1` [Compound 521, 5-Diethylamino-2-[5-(5-trifluoromethyl-pyridin-2-yl)-2H-[1,2,4]triazol-3-yl]-phenol], above 19 µM.

Take `Oc1ccc(O)c(-c2nc(-c3ccc(C(F)(F)F)cn3)n[nH]2)c1` [Compound 522, 4-Hydroxy-2-[5-(5-trifluoromethyl-pyridin-2-yl)-2H-[1,2,4]triazol-3-yl]-phenol]: the EC50 is above 19 µM.

For `COc1cccc(-c2nc(-c3ccc(C(F)(F)F)cn3)n[nH]2)c1` [Compound 523, 2-[5-(3-Methoxy-phenyl)-1H-[1,2,4]triazol-3-yl]-5-trifluoromethyl-pyridine], the EC50 was above 19 µM.

Regarding `COc1ccc(F)c(-c2nc(-c3ccc(C(F)(F)F)cn3)n[nH]2)c1` [Compound 524, 2-[5-(2-Fluoro-5-methoxy-phenyl)-1H-[1,2,4]triazol-3-yl]-5-trifluoromethyl-pyridine], the EC50 is above 19 µM. To `Oc1ccc2ccccc2c1-c1nc(-c2ccc(C(F)(F)F)cn2)n[nH]1` [Compound 525, 1-[5-(5-trifluoromethyl-pyridin-2-yl)-2H-[1,2,4]triazol-3-yl]-naphthalen-2-ol] belongs above 19 µM; to `FC(F)(F)c1ccc(-c2n[nH]c(-c3cccc(Br)c3)n2)nc1` [Compound 526, 2-[5-(3-Bromo-phenyl)-1H-[1,2,4]triazol-3-yl]-5-trifluoromethyl-pyridine], above 19 µM.

As a reminder, the EC50 is the midpoint of the concentration-response curve.
